The record followed here is ChEMBL document CHEMBL5725721, “Pyridazinone-amides derivatives” (2017).

This assay has as its target Interleukin-1 receptor-associated kinase 1 (Homo sapiens, UniProt P51617). Description: IRAK1 Enzymatic Assay: IRAK1 is a human purified recombinant enzyme (His-TEV-IRAK1 (194-712)) In this assay, IRAK-1 hydrolyses ATP and autophosphorylates.Measurement of IRAK-1 inhibition is performed in streptavidin coated 384 well FlashPlate (PerkinElmer #SMP410A).His-TEV-IRAK-1 (15 ng/well), ATP (1 μM, [33P]ATP 0.25 μCi/well) and compounds in DMSO (range of concentrations from 20 μM to 1 nM) or controls (2% DMSO) are incubated for 3 hours at 30° C. in assay buffer: Hepes pH7.0 50 mM, Fatty acid-free BSA 0.1%, Dithiothreitol DTT 2 mM, MgCl2 10 mM, EGTA 0.5 mM, Triton-X-100 0.01%. Kinase reaction is stopped by addition of EDTA. Supernatant is discarded, plates are washed three times with 150 mM NaCl and radioactivity is then measured in a Microbeta Trilux reader.

A value given as a limit tells only on which side of the number the result lay.

Interleukin-1 receptor-associated kinase 1, sequence (P51617 whole entry): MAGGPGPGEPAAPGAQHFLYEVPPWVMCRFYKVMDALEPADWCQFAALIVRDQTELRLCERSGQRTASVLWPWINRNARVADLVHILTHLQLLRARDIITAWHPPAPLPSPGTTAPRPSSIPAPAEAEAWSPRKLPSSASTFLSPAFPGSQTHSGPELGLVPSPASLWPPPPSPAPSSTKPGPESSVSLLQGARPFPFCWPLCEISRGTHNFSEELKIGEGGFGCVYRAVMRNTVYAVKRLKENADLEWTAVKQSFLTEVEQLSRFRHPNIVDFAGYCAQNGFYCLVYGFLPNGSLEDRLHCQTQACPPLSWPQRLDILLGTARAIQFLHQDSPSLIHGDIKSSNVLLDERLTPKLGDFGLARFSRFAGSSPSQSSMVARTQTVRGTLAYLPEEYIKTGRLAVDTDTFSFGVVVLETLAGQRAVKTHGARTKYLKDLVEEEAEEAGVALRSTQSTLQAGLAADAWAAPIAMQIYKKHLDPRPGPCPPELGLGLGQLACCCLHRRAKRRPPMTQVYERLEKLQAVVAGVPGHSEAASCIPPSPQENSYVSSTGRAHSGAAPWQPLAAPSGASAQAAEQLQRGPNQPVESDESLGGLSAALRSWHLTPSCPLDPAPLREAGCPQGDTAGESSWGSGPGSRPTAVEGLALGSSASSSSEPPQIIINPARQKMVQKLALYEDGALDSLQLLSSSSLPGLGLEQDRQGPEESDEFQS

For `Cc1ccncc1-c1ccc(=O)n(Cc2cccc(C(=O)Nc3nc4ccccc4[nH]3)c2)n1`, the IC50 – broadly, the point on the concentration scale where inhibition reaches its midpoint – is below 100 nM.
